Data taken from PMC11359702, “Synthesis and Biochemical Evaluation of Ethanoanthracenes and Related Compounds: Antiproliferative and Pro-Apoptotic Effects in Chronic Lymphocytic Leukemia (CLL)” (Pharmaceuticals, 2024).

How the values were obtained:
HG-3 cells [1] = assay: alamarBlue cell viability assay; conditions: for IC50: read-out: HG-3 IC50; for IC50 / viability at 1 µM / viability at 10 µM: HG-3, 24 h; for viability at 1 µM / viability at 10 µM: Homo sapiens; for viability at 1 µM: read-out: cell viability, HG-3, 1 µM, 24 h, vehicle = 100%; for viability at 10 µM: read-out: cell viability, HG-3, 10 µM, 24 h, vehicle = 100%
MOLT-4 = assay: NCI-60 five-dose assay; type: cell-based, human; conditions: MOLT-4
SR = assay: NCI-60 five-dose assay; type: cell-based, human
CCRF-CEM = assay: NCI-60 five-dose assay; type: cell-based, human
PGA-1 cells [2] = conditions: 10 µM
HL-60(TB) = assay: NCI-60 five-dose assay; type: cell-based, human; conditions: HL-60(TB)
PGA-1 cells [3] = assay: alamarBlue cell viability assay; conditions: for IC50: read-out: PGA-1 IC50, PGA-1, 24 h; for viability at 10 µM: Homo sapiens, 24 h, read-out: cell viability
RPMI-8226 = assay: NCI-60 five-dose assay; type: cell-based, human; conditions: RPMI-8226
[4] = system: HG-3 and PGA-1 cell lines; assay: alamarBlue cell viability assay, mean of both CLL cell lines; type: cell-based, human; conditions: mean of HG-3 and PGA-1
[5] = system: NCI 60 cancer cell line panel; assay: NCI-60 five-dose assay, full-panel means; type: cell-based; conditions: for Mean TGI (MID TGI, total growth inhibition) / GI50: mean over NCI 60 cell line panel; for GI50: read-out: Mean GI50 (MID GI50, full-panel mean-graph mid-point)
Method: A number of our most promising compounds identified through preliminary cell viability testing (23c, 23d, 23f, 23h, 23l, 23m, 23n, 23o, 24f, 24l, 25n and 26n) were selected for NCI drug screening in the 60-cell-line panel. The panel includes nine subcategories based on cancer tissue types, which include leukemia, ovarian, central nervous system, breast, lung, prostate, skin, renal and colon cancer. The compounds were initially assessed in a one-dose assay at a fixed treatment concentration of 10 µM. The compounds selected for further investigation were progressed to a five-dose assay across the concentration ranges of 0.01, 0.1, 1, 10 and 100 µM [72]. The endpoints assessed in the screening protocol were GI50, TGI and LC50 [72].

leukemia cell panel = assay: NCI-60 five-dose assay, leukemia cell panel mean; type: cell-based, human; conditions: mean across the six leukemia cell lines
K-562 = assay: NCI-60 five-dose assay; type: cell-based, human; conditions: K-562
HG-3 cells [6] = conditions: 10 µM
[7] = HPLC stability study in phosphate buffers; type: physicochemical; conditions: 37 °C
Method: A preliminary stability study was carried out on selected chalcones, maleic anhydride and maleimide adducts at acidic, neutral and basic conditions (pH 4, 7.4 and 9) using HPLC to determine suitability for further preclinical investigations. […] A possible degradation route for the maleimide 23n could be through the hydrolysis of the cyclic imide of the maleimide ring, leading to the resultant amic acid product.
All samples were analyzed using acetonitrile–water (80:20%, 70:30%, 60:40% isocratic) as the mobile phase over 10 min and a flow rate of 1 mL/min. Stock solutions were prepared by dissolving 5 mg of compounds in a mobile phase ([(acetonitrile (80%): water (20%)], 10 mL). Anhydride 22h was not detected at its retention time of 5.2 min at pH 9.0. The data presented represent the results of single experiments.
The HPLC stability studies for compounds 21a, 21i, 22h, 23a, 23g, 23n, 24a, 24h, 26a and 26n were performed using a Symmetry® column (C18, 5 µm, 4.6 × 150 mm), a Waters 2487 Dual Wavelength Absorbance detector, and an HPLC pump: Waters 1525 binary and Autosampler; Waters 717 plus (Waters Corporation, Milford, MA, USA), mobile phase [(acetonitrile (80%) and water (20%)] with a typical run time of 10 min and a flow rate of 1 mL/min with detection at 254 nm. The selected compounds 21a, 21i, 22h, 23a, 23g, 23n, 24a, 24h, 26a and 26n (5 mg) in the mobile phase (10 mL) provided the stock solution for the analysis. The phosphate buffers were prepared at pH values of 4, 7.4 and 9, as described in the British Pharmacopoeia monograph 2019. The stock solution (30 µL) was added to the appropriate buffer (1 mL) and retained at 37 °C. Samples were then analyzed over the following 24-h period at selected time intervals (t = 0 min, 5 min, 30 min, 60 min, 90 min, 120 min and 24 h).

melting point | Compound | IC50 (HG-3 cells [1]) | GI50 (MOLT-4) | GI50 (SR) | GI50 (CCRF-CEM) | cell viability (PGA-1 cells [2]) | GI50 (HL-60(TB)) | IC50 (PGA-1 cells [3]) | GI50 (RPMI-8226) | IC50 [4] | CC50 [5] | Mean TGI (MID TGI, total growth inhibition) [5] | GI50 [5] | GI50 (leukemia cell panel) | GI50 (K-562) | viability at 10 µM (PGA-1 cells [3]) | also measured
 | CCc1ccc(C(=O)/C=C/C23c4ccccc4C(c4ccccc42)C2C(=O)NC(=O)C23)cc1 (centres unmarked) [Compound 23c, 9-((E)-3-(4-Ethylphenyl)-3-oxoprop-1-en-1-yl)-9,10-dihydro-9,10-[3,4]epipyrroloanthracene-12,14-dione] | 4610 nM | 2230 nM | 1370 nM | 2660 nM | 7% | 70 nM | 2720 nM | 1870 nM | 3670 nM | 17000 nM | 4670 nM | 1900 nM | 1770 nM | 2420 nM |  | 
157 to 158 °C | O=C(/C=C/c1c2ccccc2cc2ccccc12)c1cccs1 [Compound 21q, (E)-3-(anthracen-9-yl)-1-(thiophen-2-yl)prop-2-en-1-one] |  |  |  |  |  |  |  |  |  |  |  |  |  |  |  | 
 | O=C(/C=C/C12c3ccccc3C(c3ccccc31)C1C(=O)N(c3ccccc3)C(=O)C12)c1ccc(Cl)cc1 (centres unmarked) [Compound 24l, (E)-9-(3-(4-Chlorophenyl)-3-oxoprop-1-en-1-yl)-13-phenyl-9,10-dihydro-9,10-[3,4] epipyrroloanthracene-12,14-dione] | 3450 nM | 760 nM | 1070 nM | 570 nM | 17% | 800 nM | 310 nM | 1160 nM | 1880 nM | 43700 nM | 10720 nM | 1700 nM | 980 nM | 1550 nM |  | cell viability (HG-3 cells [6]): 24%
170 to 173 °C | O=C(/C=C/c1c2ccccc2cc2ccccc12)c1ccncc1 [Compound 21m, (E)-3-(anthracen-9-yl)-1-(pyridin-4-yl)prop-2-en-1-one] |  |  |  |  |  |  |  |  |  |  |  |  |  |  | 43% | viability at 1 µM (HG-3 cells [1]): 50 to 61%; viability at 10 µM (HG-3 cells [1]): 37 to 54%
 | O=C(/C=C/C12c3ccccc3C(c3ccccc31)C1C(=O)N(c3ccccc3)C(=O)C12)c1ccccc1 (centres unmarked) [Compound 24f, (E)-9-(3-Oxo-3-phenylprop-1-en-yl)-13-phenyl-9,10-dihydro-9,10-[3,4]epipyrroloanthracene-12,14-dione] | 7350 nM | 1230 nM | 2030 nM | 1450 nM | 26% | 1020 nM | 7130 nM | 1550 nM | 7240 nM | 72400 nM | 19950 nM | 2090 nM | 1450 nM | 1390 nM |  | 
128 to 129 °C | CCc1ccc(C(=O)/C=C/c2c3ccccc3cc3ccccc23)cc1 [Compound 21c, (E)-3-(anthracen-9-yl)-1-(4-ethylphenyl)prop-2-en-1-one] |  |  |  |  |  |  |  |  |  |  |  |  |  |  |  | 
98 to 103 °C | Cc1ccc(C(=O)/C=C/c2c3ccccc3cc3ccccc23)cc1 [Compound 21j, (E)-3-(anthracen-9-yl)-1-(p-tolyl)prop-2-en-1-one] |  |  |  |  |  |  |  |  |  |  |  |  |  |  |  | 
128 to 130 °C | O=C(/C=C/c1c2ccccc2cc2ccccc12)c1ccccc1 [Compound 21f, (E)-3-(anthracen-9-yl)-1-phenylprop-2-en-1-one] |  |  |  |  |  |  |  |  |  |  |  |  |  |  |  | 
160 to 164 °C | COc1cc(C(=O)/C=C/c2c3ccccc3cc3ccccc23)cc(OC)c1OC [Compound 21k, (E)-3-(Anthracen-9-yl)-1-(3,4,5-trimethoxyphenyl)prop-2-en-1-one] |  |  |  |  |  |  |  |  |  |  |  |  |  |  | 43% | viability at 1 µM (HG-3 cells [1]): 50 to 61%; viability at 10 µM (HG-3 cells [1]): 37 to 54%
167 to 173 °C | O=C(/C=C/c1c2ccccc2cc2ccccc12)c1ccc(I)cc1 [Compound 21g, (E)-3-(anthracen-9-yl)-1-(4-iodophenyl)prop-2-en-1-one] |  |  |  |  |  |  |  |  |  |  |  |  |  |  |  | 
 | O=C(c1ccccc1)c1ccc(N2C(=O)C3C4c5ccccc5C(/C=C/C(=O)c5ccccn5)(c5ccccc54)C3C2=O)cc1 (centres unmarked) [Compound 26n, (E)-13-(4-Benzoylphenyl)-9-(3-oxo-3-(pyridin-2-yl)prop-1-en-1-yl)-9,10-dihydro-9,10-[3,4]epipyrroloanthracene-12,14-dione] | 1850 nM | 2290 nM | 1370 nM | 2590 nM | 18% | 1900 nM | 390 nM | 2490 nM | 1120 nM | 100000 nM | 100000 nM | 7580 nM | 2070 nM | 1770 nM |  | decrease in cell viability compared to 26f (HG-3 cells [1]; HG-3, 1 µM): 34%; decrease in cell viability compared to 26f (HG-3 cells [1]; HG-3, 10 µM): 82%; Half-life pH 4 ([7]; pH 4 buffer): 8.5 h; % remaining 24 h pH 4 ([7]; pH 4 buffer, 24 h, HPLC): 10.97%; Half-life pH 7.4 ([7]; pH 7.4 buffer): 16.5 h; % remaining 24 h pH 7.4 ([7]; pH 7.4 buffer, 24 h, HPLC): 40.39%; Half-life pH 9 ([7]; pH 9 buffer): over 24 h; % remaining 24 h pH 9 ([7]; pH 9 buffer, 24 h, HPLC): 51.20%; cell viability (HG-3 cells [6]): 4%; decrease in cell viability compared to 26f (PGA-1 cells [3]; PGA-1, 1 µM): 20%; decrease in cell viability compared to 26f (PGA-1 cells [3]; PGA-1, 10 µM): 63%
160 to 164 °C | O=C(/C=C/c1c2ccccc2cc2ccccc12)c1ccc2ccccc2c1 [Compound 21p, (E)-3-(anthracen-9-yl)-1-(naphthalen-2-yl)prop-2-en-1-one] |  |  |  |  |  |  |  |  |  |  |  |  |  |  | 50% | 

Compound | melting point | IC50 (HG-3 cells [1]) | GI50 (MOLT-4) | GI50 (SR) | GI50 (CCRF-CEM) | cell viability (PGA-1 cells [2]) | GI50 (HL-60(TB)) | IC50 (PGA-1 cells [3]) | GI50 (RPMI-8226) | IC50 [4] | CC50 [5] | Mean TGI (MID TGI, total growth inhibition) [5] | GI50 [5] | GI50 (leukemia cell panel) | GI50 (K-562) | viability at 10 µM (PGA-1 cells [3]) | also measured
COC(=O)C1=C(C(=O)OC)C2(C=CC(=O)c3ccccc3)c3ccccc3C1c1ccccc12 [Compound 27, Dimethyl (E)-9-(3-oxo-3-phenylprop-1-en-1-yl)-9,10-dihydro-9,10-ethenoanthracene-11,12-dicarboxylate] | > 250 °C |  |  |  |  |  |  |  |  |  |  |  |  |  |  | 58% | viability at 10 µM (HG-3 cells [1]): 50%
